According to patent publication US11180444B2, “Polyimino ketoaldehydes” (NOVUM SPERO LTD., priority 2017, dated 2021):
Entries after “also recorded” stand apart in the source; their conditions may differ.

Columns and labels:
[1] = system: Avian Pathogenic Escherichia coli multi-resistant strain; experiment: Inhibition zones, disc test; type: cell-based
[2] = system: gram-positive and gram-negative bacteria including multi-resistant bacteria; experiment: In vitro testing of antibacterial properties; type: cell-based

Trimethoprim sulphate [reference compound]
Inhibition zone ([1]; 1.25 μg + 23.75 μg per disc): 0 mm

CN(C)[C@@H]1C(O)=C(C(N)=O)C(=O)[C@@]2(O)C(O)=C3C(=O)c4c(O)cccc4[C@@](C)(O)[C@H]3C[C@@H]12 [Tetracycline, reference compound]
zone of inhibition at 30 µg/disc ([1]; Escherichia coli, read-out: Inhibition zone): 0 mm

1-amino-tetratriacontyl-henicosa-20-on-21-al [CM]
Inhibition zone ([1]; 10 μL of solution (350 μg/1 μL) per disc): 8 mm
Inhibition zone ([1]; 15 μL of solution (350 μg/1 μL) per disc): 9 mm
Inhibition zone ([1]; 20 μL of solution (350 μg/1 μL) per disc): 10 mm
Inhibitory activity against the strain (in words) ([1]; compared with antibiotics in their standard dose): has an effect on the inhibition; also recorded: shows inhibitory activity
Antibacterial properties (in words) [2]: shows antibacterial properties

CC1(C)S[C@@H]2[C@H](NC(=O)[C@H](N)c3ccc(O)cc3)C(=O)N2[C@H]1C(=O)O [Amoxicillin, reference compound]
zone of inhibition at 25 µg/disc ([1]; Escherichia coli, 25 μg per disc): 0 mm

Cc1cc(C)nc(NS(=O)(=O)c2ccc(N)cc2)n1 [Sulfadimidine, reference compound]
zone of inhibition at 300 µg/disc ([1]; Escherichia coli, 300 μg per disc): 0 mm
